# Results reported in patent publication US20240365781A1, “SYNERGISTICALLY EFFECTIVE HERBICIDE COMPOSITION COMPRISING PELARGONIC ACID AND FLAZASULFURON” (Belchim Crop Protection NV, priority 2017, published 2024).
# Key:
# Format in all cases: in vivo
# Lolium sp. = assay: post-emergence test, field trial (Examples 1-5); conditions: 7 d, FT; pelargonic acid 5440 g/ha, flazasulfuron 50 g/ha; 8 L/ha
# Summary of the method: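 Pelargonic acid + flazasulfuron mixture and each herbicide alone applied post-emergence as spray liquors, in field or pot trials. Activity scored as % damage; expected combination damage E calculated by Colby's method from individual-herbicide damage X and Y at rates m and n g/ha.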
# Veronica persicae = assay: post-emergence field trial under rows of vines, 150-200 L water/ha (Examples 6-9); conditions: flazasulfuron 40 g/ha
# Source text: (§1) The expected activity of a given combination of two or three herbicides can be calculated as follows according to a calculation method by Colby (cf. COLBY, S. R.: “Calculating synergistic and antagonistic responses of herbicide combinations”, • Weeds 15, pages 20-22, 1967): • If X=% damage by herbicide (A) at an application rate of m g/ha, • Y=% damage by herbicide (B) at an application rate of n g/ha, • E=the expected damage by herbicides (A) and (B) at application rates of m and n […] and, • then for a combination:
# (§2) Individual compositions comprising pelargonic acid or flazasulfuron are compared with a herbicide composition according to the invention comprising pelargonic acid and flazasulfuron.
# (§3) Herbicidal activity was determined by performing a post-emergence test. […] The corresponding mixture was in the form of a spray solution. Besides, spray solutions of individual compositions comprising pelargonic acid or flazasulfuron were used.
# (§4) The spray solution was applied on plants of unwanted vegetation present on fields where perennial crops were grown.
# (§5) After 5 to 88 days after application of the spray solution, the degree of damage to the unwanted vegetation is rated in % of plants of unwanted vegetation that were killed. Tests were performed on test fields (field trials).
# Chenopodium album = assay: as above; conditions: flazasulfuron 40 g/ha
# Source text: as §1, §2, §3, §4, §5
# Epilobium tetragonum = assay: as above; conditions: flazasulfuron 40 g/ha
# Source text: as §1, §2, §3, §4, §5
# Geranium molle = assay: as above; conditions: 15 d, flazasulfuron 40 g/ha
# Source text: as §1, §2, §3, §4, §5
# Amaranthus retroflexus = assay: as above; conditions: flazasulfuron 40 g/ha
# Source text: as §1, §2, §3, §4, §5
# Stellaria media = assay: as above; conditions: flazasulfuron 40 g/ha
# Source text: as §1, §2, §3, §4, §5
# Senecio vulgaris = assay: as above; conditions: flazasulfuron 40 g/ha
# Source text: as §1, §2, §3, §4, §5
# Convolvulus arvensis = assay: as above; conditions: flazasulfuron 40 g/ha
# Source text: as §1, §2, §3, §4, §5
# Sonchus oleracea = assay: as above; conditions: flazasulfuron 40 g/ha
# Source text: as §1, §2, §3, §4, §5
# Erigeron sumatrensis = assay: as above; conditions: flazasulfuron 40 g/ha
# Source text: as §1, §2, §3, §4, §5
# [1] = 7 d, pelargonic acid 10880 g/ha
# [2] = 14 d, pelargonic acid 5440 g/ha
# [3] = 14 d, pelargonic acid 6800 g/ha
# [4] = 14 d, pelargonic acid 8160 g/ha
# [5] = 14 d, pelargonic acid 10880 g/ha
# [6] = 27 d, pelargonic acid 5440 g/ha
# [7] = 27 d, pelargonic acid 6800 g/ha
# [8] = 27 d, pelargonic acid 8160 g/ha
# [9] = 27 d, pelargonic acid 10880 g/ha
# [10] = 56 d, pelargonic acid 5440 g/ha
# [11] = 56 d, pelargonic acid 10880 g/ha
# [12] = 31 d, pelargonic acid 5440 g/ha
# [13] = 31 d, pelargonic acid 8160 g/ha
# [14] = 31 d, pelargonic acid 10880 g/ha
# [15] = 58 d, pelargonic acid 5440 g/ha
# [16] = 58 d, pelargonic acid 6800 g/ha
# [17] = 58 d, pelargonic acid 8160 g/ha
# [18] = 58 d, pelargonic acid 10880 g/ha
# [19] = 56 d, pelargonic acid 6800 g/ha
# [20] = 56 d, pelargonic acid 8160 g/ha
# [21] = 31 d, pelargonic acid 6800 g/ha
# [22] = 28 d, pelargonic acid 6800 g/ha
# [23] = 28 d, pelargonic acid 8160 g/ha
# [24] = 28 d, pelargonic acid 10880 g/ha
smiles,measurement,setting,value
"CCCCCCCCC(=O)O [Pelargonic acid, nonanoic acid]",herbicidal effect,Lolium sp.,18.8%
same,herbicidal effect,"Veronica persicae; 7 d, pelargonic acid 5440 g/ha",43%
same,herbicidal effect,"Veronica persicae; 7 d, pelargonic acid 6800 g/ha",55%
same,herbicidal effect,"Veronica persicae; 7 d, pelargonic acid 8160 g/ha",50%
same,herbicidal effect,Veronica persicae; [1],45%
same,herbicidal effect,Veronica persicae; [2],10%
same,herbicidal effect,Veronica persicae; [3],45%
same,herbicidal effect,Veronica persicae; [4],30%
same,herbicidal effect,Veronica persicae; [5],30%
same,herbicidal effect,Veronica persicae; [6],0%
same,herbicidal effect,Veronica persicae; [7],20%
same,herbicidal effect,Veronica persicae; [8],0%
same,herbicidal effect,Veronica persicae; [9],0%
same,herbicidal effect,Veronica persicae; [10],0%
same,herbicidal effect,Veronica persicae; [11],0%
same,herbicidal effect,"Chenopodium album; 7 d, pelargonic acid 5440 g/ha",60%
same,herbicidal effect,Chenopodium album; [1],91%
same,herbicidal effect,Chenopodium album; [2],60%
same,herbicidal effect,Chenopodium album; [5],91%
same,herbicidal effect,Chenopodium album; [12],45%
same,herbicidal effect,Chenopodium album; [13],74%
same,herbicidal effect,Chenopodium album; [14],78%
same,herbicidal effect,Chenopodium album; [15],23%
same,herbicidal effect,Chenopodium album; [16],35%
same,herbicidal effect,Chenopodium album; [17],65%
same,herbicidal effect,Chenopodium album; [18],65%
same,herbicidal effect,"Epilobium tetragonum; 7 d, pelargonic acid 5440 g/ha",49%
same,herbicidal effect,"Epilobium tetragonum; 7 d, pelargonic acid 8160 g/ha",56%
same,herbicidal effect,Epilobium tetragonum; [1],73%
same,herbicidal effect,Epilobium tetragonum; [3],0%
same,herbicidal effect,Epilobium tetragonum; [4],8%
same,herbicidal effect,Epilobium tetragonum; [5],13%
same,herbicidal effect,Epilobium tetragonum; [7],0%
same,herbicidal effect,Epilobium tetragonum; [8],0%
same,herbicidal effect,Epilobium tetragonum; [9],0%
same,herbicidal effect,Epilobium tetragonum; [19],0%
same,herbicidal effect,Epilobium tetragonum; [20],0%
same,herbicidal effect,Epilobium tetragonum; [11],0%
same,herbicidal effect,Geranium molle; pelargonic acid 5440 g/ha,0%
same,herbicidal effect,Geranium molle; pelargonic acid 6800 g/ha,3%
same,herbicidal effect,Geranium molle; pelargonic acid 8160 g/ha,0%
same,herbicidal effect,Geranium molle; pelargonic acid 10880 g/ha,0%
same,herbicidal effect,"Amaranthus retroflexus; 7 d, pelargonic acid 5440 g/ha",53%
same,herbicidal effect,Amaranthus retroflexus; [1],86%
same,herbicidal effect,Amaranthus retroflexus; [2],53%
same,herbicidal effect,Amaranthus retroflexus; [5],86%
same,herbicidal effect,Amaranthus retroflexus; [12],48%
same,herbicidal effect,Amaranthus retroflexus; [21],50%
same,herbicidal effect,Amaranthus retroflexus; [13],70%
same,herbicidal effect,Amaranthus retroflexus; [14],75%
same,herbicidal effect,Amaranthus retroflexus; [15],18%
same,herbicidal effect,Amaranthus retroflexus; [16],30%
same,herbicidal effect,Amaranthus retroflexus; [17],48%
same,herbicidal effect,Amaranthus retroflexus; [18],63%
same,herbicidal effect,"Stellaria media; 7 d, pelargonic acid 8160 g/ha",49%
same,herbicidal effect,Stellaria media; [1],54%
same,herbicidal effect,Stellaria media; [2],69%
same,herbicidal effect,Stellaria media; [3],75%
same,herbicidal effect,Stellaria media; [4],66%
same,herbicidal effect,Stellaria media; [5],80%
same,herbicidal effect,"Stellaria media; 28 d, pelargonic acid 5440 g/ha",80%
same,herbicidal effect,Stellaria media; [22],84%
same,herbicidal effect,Stellaria media; [23],86%
same,herbicidal effect,Stellaria media; [24],93%
same,herbicidal effect,"Senecio vulgaris; 7 d, pelargonic acid 5440 g/ha",83%
same,herbicidal effect,"Senecio vulgaris; 7 d, pelargonic acid 6800 g/ha",89%
same,herbicidal effect,Senecio vulgaris; [2],80%
same,herbicidal effect,Senecio vulgaris; [3],89%
same,herbicidal effect,Senecio vulgaris; [4],98%
same,herbicidal effect,Senecio vulgaris; [12],60%
same,herbicidal effect,Senecio vulgaris; [21],60%
same,herbicidal effect,Senecio vulgaris; [13],91%
same,herbicidal effect,Senecio vulgaris; [14],90%
same,herbicidal effect,Senecio vulgaris; [15],0%
same,herbicidal effect,Senecio vulgaris; [17],10%
same,herbicidal effect,Senecio vulgaris; [18],15%
same,herbicidal effect,"Convolvulus arvensis; 7 d, pelargonic acid 5440 g/ha",13%
same,herbicidal effect,"Convolvulus arvensis; 7 d, pelargonic acid 6800 g/ha",0%
same,herbicidal effect,"Convolvulus arvensis; 7 d, pelargonic acid 8160 g/ha",19%
same,herbicidal effect,Convolvulus arvensis; [2],13%
same,herbicidal effect,Convolvulus arvensis; [3],0%
same,herbicidal effect,Convolvulus arvensis; [4],23%
same,herbicidal effect,Convolvulus arvensis; [5],43%
same,herbicidal effect,Convolvulus arvensis; [22],0%
same,herbicidal effect,Convolvulus arvensis; [23],0%
same,herbicidal effect,Convolvulus arvensis; [24],38%
same,herbicidal effect,"Convolvulus arvensis; 65 d, pelargonic acid 5440 g/ha",0%
same,herbicidal effect,"Convolvulus arvensis; 65 d, pelargonic acid 6800 g/ha",0%
same,herbicidal effect,"Convolvulus arvensis; 65 d, pelargonic acid 8160 g/ha",0%
same,herbicidal effect,"Convolvulus arvensis; 65 d, pelargonic acid 10880 g/ha",0%
same,herbicidal effect,Sonchus oleracea; [2],25%
same,herbicidal effect,Sonchus oleracea; [3],45%
same,herbicidal effect,Sonchus oleracea; [4],25%
same,herbicidal effect,Sonchus oleracea; [5],28%
same,herbicidal effect,Sonchus oleracea; [6],0%
same,herbicidal effect,Sonchus oleracea; [7],13%
same,herbicidal effect,Sonchus oleracea; [8],0%
same,herbicidal effect,Sonchus oleracea; [9],0%
same,herbicidal effect,Sonchus oleracea; [10],0%
same,herbicidal effect,Sonchus oleracea; [19],0%
same,herbicidal effect,Sonchus oleracea; [20],0%
same,herbicidal effect,Sonchus oleracea; [11],0%
same,herbicidal effect,"Erigeron sumatrensis; 5 d, pelargonic acid 5440 g/ha",55%
same,herbicidal effect,"Erigeron sumatrensis; 5 d, pelargonic acid 8160 g/ha",83%
same,herbicidal effect,"Erigeron sumatrensis; 15 d, pelargonic acid 5440 g/ha",35%
same,herbicidal effect,"Erigeron sumatrensis; 15 d, pelargonic acid 6800 g/ha",50%
same,herbicidal effect,"Erigeron sumatrensis; 15 d, pelargonic acid 8160 g/ha",61%
